Assay results from patent publication US10905761B2, “Use of a lipopeptide or lipoprotein as an adjuvant in therapeutic or prophylactic vaccinations” (HELMHOLTZ-ZENTRUM FUER INFEKTIONSFORSCHUNG GMBH, priority 2002, dated 2021).
No end group written: not given here.

How the values were obtained:
Type in all cases: in vivo
BALB/c (H-2d) mice [1] = assay: Cellular responses (spleen cell proliferation) after immunization with different MALP-2 doses (Example 3); conditions: 1 μg MALP-2; spleen cells restimulated with β-galactosidase; day 28
Procedure: β-Galactosidase-specific T-cell proliferation responses of mouse spleen cells immunized by the i.p. or i.n. routes with either pure β-galactosidase (40 μg/dose) or β-galactosidase mixed with MAPL-2 (1 or 0.5 μg/dose) on days 0, 7 and 14. On day 28 after the primary immunization, the animals were sacrificed and the spleen cells were restimulated in vitro in the presence of 20 μg/ml soluble β-galactosidase for four days. The results are shown as stimulation indices (cpm of samples/cpm in unstimulated control cells).
Six- to eight-week old female BALB/c (H-2d) mice were purchased from Harlan Winkelmann GmbH (Borchen, Germany) and treated in accordance with local and EU directives. Groups each of 5 mice were immunized on day 1, 7 and 14 either with 40 μg of pure β-galactosidase (Boehringer, Mannheim, Germany), or with admixture of 1 or 0.5 μg of synthetic MALP-2. For the intranasal administration (i.n.), 10 μl was administered into each nostril, while for the i.p. injection β-galactosidase was resuspended with or without MALP-2 in 400 μl of PBS. […] The cells were then harvested on filter paper (Filtermat A; Wallac, Freiburg, Germany) with a cell harvester (Inotech, Wohlen, Switzerland), and the amount of [H]thymidine incorporated into the DNA of the proliferated cells was determined with the aid of a […] scintillation counter (Wallac 1450, Micro-Trilux). […]

BALB/c (H-2d) mice [2] = assay: β-Galactosidase-specific IgA in lung and vaginal lavages of mice immunized i.n. (Example 5)
Procedure: The results are shown as percentage of β-galactosidase-specific IgA in relation to the total IgA present. The SEM is indicated by vertical lines.
The mice were sacrificed on day 31, and the final samples were taken. Vaginal and lung lavages were obtained by rinsing the organs with 1 ml of PBS supplemented by 50 mM EDTA, 0.1% BSA and 10 mM PMSF. The lavages were then centrifuged in order to remove tissue detritus (10 min at 3000×g) and the remaining liquid was stored at −20° C. In order to determine the total IgA concentration in the rinsings from lung and vagina, serial dilutions of the corresponding samples were incubated in microtiter plates, these plates having previously been coated with goat anti-mouse IgA (Sigma Chemie) as capture antibody (100 μl/well). Serial dilutions of purified mouse IgA (Sigma Chemie) were used to produce a standard plot.

BALB/c (H-2d) mice [3] = assay: Serum IgE level after immunization (capture ELISA, Example 6); conditions: MALP-2 i.p. or via the mucous membranes; day 28
Procedure: Mice were immunized intraperitoneally (i.p.) and intranasally (i.n.) either with pure β-galactosidase (40 μg), exclusively MALP-2 or β-galactosidase mixed with MALP-2 (0.5 μg) on days 0, 7 and 14. On day 28 after the first immunization, serum samples were obtained, and the IgE levels were determined by means of a capture ELISA. The results are shown as IgE concentrations (ng/ml).
To determine the total IgE concentration in the serum of immunized and control animals, serial dilutions of the appropriate samples were incubated in microtiter plates which had previously been coated with anti-mouse IgE (100 μl/well) as capture antibody. After blocking with PBS with 1% BSA and 0.05% Tween-20 at room temperature for two hours, a 1:100 dilution of the serum in PBS-Tween was added (100 μl/well) and the plates were incubated at 37° C. for one hour. After rinsing, biotinylated anti-mouse IgE was added and the plates were incubated at 37° C. for a further hour. After rinsing four times, 100 μl of peroxidase-conjugated streptavidin (Pharmingen) were put in the wells, and the plates were incubated at 37° C. for 30 minutes. After rinsing four times, the reactions were developed by means of ABTS in 0.1 M citrate-phosphate buffer (pH 4.35) and a content of 0.01% H2O2. Serial dilutions of purified mouse IgE were used to produce a standard plot.

BALB/c (H-2d) mice [4] = assay: Oral immunization with β-galactosidase and MALP-2 as mucosal adjuvant (serum antibody ELISA, Example 9); conditions: 100 μg β-gal with 2 μg MALP-2, days 1, 14, 21, 31, serum day 45
Procedure: FIG. 12: Humoral responses stimulated after vaccination with MALP-2 as adjuvant in a dose 2 μg per animal per immunization. The mice were immunized orally either with β-galactosidase alone (100 μg/dose) or with β-galactosidase mixed with MALP-2 (2 μg/dose) on […]. On day 45 after the first immunization, serum samples were obtained, and the titers of the β-galactosidase-specific antibodies were determined with an ELISA.
Six- to eight-week old female BALB/c (H-2d) mice were purchased from Harlan Winkelmann GmbH (Borchen, Germany) and treated in accordance with local guidelines and directives of the European Community. Groups each of 5 mice were immunized on days 1, 14, 21 and 31 with 100 μg of β-gal (Boehringer, Mannheim, Germany) either alone or with 2 μg of synthetic MALP-2 as adjuvant by the oral route (dose 25 μl). On day 45, serum samples were taken and stored at −20° C. until β-gal-specific antibodies were determined. 96-well Nunc-Immuno MaxiSorp® assay plates (Nunc, Roskilde, Denmark) were coated with 100 μl of β-gal at 5 μg/ml in 0.05 M carbonate buffer (pH 8.2) per well. […] The final value titers have been expressed as the reciprocal logarithmic log2 values of the last dilution which resulted, after incubation for 30 minutes, in an optical density at 405 nm of 0.1 units above the values for the negative controls.

## S-[2,3-bispalmitoyloxypropyl]cysteinyl-GNNDESNISFKEK ({S‑(2,3-bispalmitoyloxypropyl)Cys}-GNNDESNISFKEK) [MALP-2]
BALB/c (H-2d) mice [1]
  cell-mediated immunization (spleen cell proliferation) at higher dose: cell-mediated immunization is reduced
BALB/c (H-2d) mice [2]; 0.5 μg MALP-2 versus 10 μg CTB, i.n.
  levels of β-galactosidase-specific antibodies in the mucous membranes, MALP-2 versus CTB: No statistically significant differences
BALB/c (H-2d) mice [2]; MALP-2 as adjuvant, i.n.
  antigen-specific IgA, based on the total IgA, in lung lavages: 36%
  antigen-specific IgA, based on the total IgA, in vaginal lavages: 23%
BALB/c (H-2d) mice [2]; i.n. immunization, day 31
  β-galactosidase-specific IgA in lung rinsings: significant increase
  β-galactosidase-specific IgA in vaginal rinsings: significant concentrations
BALB/c (H-2d) mice [3]
  serum IgE content: does not lead to an increase
BALB/c (H-2d) mice [4]
  serum immune responses to β-gal after oral immunization: Immune responses to β-gal were observed
